From patent US11000033B2, “Ketone or oxime compound, and herbicide” (NISSAN CHEMICAL CORPORATION, priority 2014, dated 2021)

Assays:
Assay type in all cases: in vivo
Cyperus difformis = assay: Test Example 3: herbicidal effect by foliage application, Wagner pot (symbol E); conditions: application herbicide amount 320 g/ha; for E herbicidal effect grade: Table 24
Summary of the method: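 Steps: fill pot with alluvial soil; add water to 0.1–0.5 cm depth; sow weed and rice seed; grow 14 days at 25–30 °C; spray diluted emulsion over the leaves; rate effect after 3 weeks.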

Galium spurium = assay: Test Example 4: herbicidal effect by soil treatment (symbol Q)
Summary of the method: (§1)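 Seeds were sown in sterilized diluvial soil, covered with about 1.5 cm of soil, and the soil surface was sprayed with a water-diluted emulsion of the compound at a predetermined rate. Plants grew in a greenhouse at 25° C. to 30° C.; effects were scored visually 3 weeks after application.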

corn = assay: Test Example 4: effect on crop by soil treatment (symbol c)
Summary of the method: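 Sterilized diluvial soil, spot sowing, ~1.5 cm soil cover; greenhouse 25–30° C.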

Setaria viridis [1] = assay: Test Example 4: herbicidal effect by soil treatment (symbol G)
Summary of the method: as §1

Veronica persica [2] = assay: Test Example 4: herbicidal effect by soil treatment (symbol R)
Summary of the method: as §1

rice = assay: Test Example 4: effect on crop by soil treatment (symbol b)
Summary of the method: (§2)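 Plants grew in a 25° C. to 30° C. greenhouse after spot-sowing of seeds, including beet, rapeseed, wheat and rice, into sterilized diluvial soil under roughly 1.5 cm of cover soil.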

Lolium multiflorum Lam. [3] = assay: Test Example 5: herbicidal effect by foliage application, plastic box (symbol K); conditions: 320 g/ha, 3 weeks after application
Summary of the method: (§3)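 Post-emergence spray; diluvial soil (sterilized), ~1.5 cm seed cover; greenhouse 25–30° C; 14-day-old plants; water-diluted emulsion at predetermined dose; visual score at 3 wk post-treatment.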

Setaria viridis [4] = assay: Test Example 5: herbicidal effect by foliage application, plastic box (symbol G); conditions: 320 g/ha, 3 weeks after application
Summary of the method: as §3

wheat = assay: Test Example 4: effect on crop by soil treatment (symbol e)
Summary of the method: as §2

Amaranthus retroflexus = assay: Test Example 5: herbicidal effect by foliage application, plastic box (symbol N); conditions: 320 g/ha, 3 weeks after application
Summary of the method: as §3

Alopecurus myosuroides [5] = assay: Test Example 4: herbicidal effect by soil treatment (symbol J)
Summary of the method: as §1

Alopecurus myosuroides [6] = assay: Test Example 5: herbicidal effect by foliage application, plastic box (symbol J); conditions: 320 g/ha, 3 weeks after application
Summary of the method: as §3

[7] = system: Echinochloa oryzacola Vasing.; assay: Test Example 1: herbicidal activity, application before weed generation in submerged conditions (symbol A); conditions: application herbicide amount 320 g/ha
Summary of the method: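 In a flooded pot test with alluvial soil, the emulsion-formulated compound was diluted with water to a predetermined amount and applied to the floodwater immediately on the sowing day. Pots were held in a greenhouse at 25–30 °C for 3 weeks before each weed was rated.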

soybean [8] = assay: Test Example 4: effect on crop by soil treatment (symbol d)
Summary of the method: as §2

Apera spica-venti = assay: Test Example 4: herbicidal effect by soil treatment (symbol L)
Summary of the method: as §1

soybean [9] = assay: Test Example 5: effect on crop by foliage application, plastic box (symbol d); conditions: 320 g/ha, 3 weeks after application
Summary of the method: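 In a plastic box 7 cm deep filled with sterilized diluvial soil, seeds of crops and weeds such as Digitaria ciliaris, Avena fatua and Amaranthus retroflexus are sown in spots and covered with about 1.5 cm of soil before greenhouse growth at 25–30° C.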

Lolium multiflorum Lam. [10] = assay: Test Example 4: herbicidal effect by soil treatment (symbol K)
Summary of the method: as §1

Avena fatua = assay: Test Example 5: herbicidal effect by foliage application, plastic box (symbol I); conditions: 320 g/ha, 3 weeks after application
Summary of the method: as §3

Veronica persica [11] = assay: Test Example 5: herbicidal effect by foliage application, plastic box (symbol R); conditions: 320 g/ha, 3 weeks after application
Summary of the method: as §3

[12] = application herbicide amount 320 g/ha

CC(CC1CC(O)=C(c2c(C)cc(C)cc2C)C1=O)=NOCC(N)=O (stereo not drawn) [1-124] was tested, and the “herbicidal effect on E, grade 0-5” value (Cyperus difformis) was 0 (Herbicidal ratio of 5% or lower (almost no effect)), the “Q: Galium spurium, herbicidal effect grade” value (Galium spurium; 320 g/ha) was 0 (Herbicidal ratio of 5% or lower (almost no effect)) and the “c: corn, effect grade on crop” value (corn; 320 g/ha) was 0 (Herbicidal ratio of 5% or lower (almost no effect)). The “G: Setaria viridis, herbicidal effect grade” value (Setaria viridis [1]; 320 g/ha) was 3 (Herbicidal ratio of 40% or higher and lower than 70%), the “R: Veronica persica, herbicidal effect grade” value (Veronica persica [2]; 320 g/ha) was 0 (Herbicidal ratio of 5% or lower (almost no effect)) and the “b: directly sowed rice plant, effect grade on crop” value (rice; 320 g/ha) was 1 (Herbicidal ratio of 5% or higher and lower than 20%). The “K: Lolium multiflorum Lam., herbicidal effect (criteria 0-5)” value (Lolium multiflorum Lam. [3]) was 4 (Herbicidal ratio of 70% or higher and lower than 90%), the “G: Setaria viridis, herbicidal effect (criteria 0-5)” value (Setaria viridis [4]) was 2 (Herbicidal ratio of 20% or higher and lower than 40%) and the “e: wheat, effect grade on crop” value (wheat; 320 g/ha) was 0 (Herbicidal ratio of 5% or lower (almost no effect)). For the same molecule, the “N: Amaranthus retroflexus, herbicidal effect (criteria 0-5)” value (Amaranthus retroflexus) was 0 (Herbicidal ratio of 5% or lower (almost no effect)), the “J: Alopecurus myosuroides, herbicidal effect grade” value (Alopecurus myosuroides [5]; 320 g/ha) was 2 (Herbicidal ratio of 20% or higher and lower than 40%) and the “J: Alopecurus myosuroides, herbicidal effect (criteria 0-5)” value (Alopecurus myosuroides [6]) was 3 (Herbicidal ratio of 40% or higher and lower than 70%). The “Herbicidal effect grade, A: Echinochloa oryzacola Vasing.” value [7] was 1 (Herbicidal ratio of 5% or higher and lower than 20%), the “d: soybean, effect grade on crop” value (soybean [8]; 320 g/ha) was 0 (Herbicidal ratio of 5% or lower (almost no effect)) and the “L: Apera spica-venti, herbicidal effect grade” value (Apera spica-venti; 320 g/ha) was 0 (Herbicidal ratio of 5% or lower (almost no effect)). The “d: soybean, effect on crop (criteria 0-5)” value (soybean [9]) was 0 (Herbicidal ratio of 5% or lower (almost no effect)), the “K: Lolium multiflorum Lam., herbicidal effect grade” value (Lolium multiflorum Lam. [10]; 320 g/ha) was 3 (Herbicidal ratio of 40% or higher and lower than 70%) and the “I: Avena fatua, herbicidal effect (criteria 0-5)” value (Avena fatua) was 2 (Herbicidal ratio of 20% or higher and lower than 40%). For the same molecule, the “R: Veronica persica, herbicidal effect (criteria 0-5)” value (Veronica persica [11]) was 0 (Herbicidal ratio of 5% or lower (almost no effect)).
For CCC(=O)CC1CC(O)=C(c2c(C)cc(Br)cc2OC)C1=O (racemic) [14-002], the “E herbicidal effect grade” value (Cyperus difformis) was 5 (Herbicidal ratio of 90% or more (almost completely withered)), the “Q: Galium spurium, herbicidal effect grade” value (Galium spurium; [12]) was 0 (Herbicidal ratio of 5% or lower (almost no effect)) and the “c: corn, effect on crop grade” value (corn; [12]) was 1 (Herbicidal ratio of 5% or higher and lower than 20%). For the same molecule, the “G: Setaria viridis, herbicidal effect grade” value (Setaria viridis [1]; [12]) was 5 (Herbicidal ratio of 90% or more (almost completely withered)), the “R: Veronica persica, herbicidal effect grade” value (Veronica persica [2]; [12]) was 0 (Herbicidal ratio of 5% or lower (almost no effect)) and the “b: directly sowed rice plant, effect on crop grade” value (rice; [12]) was 5 (Herbicidal ratio of 90% or more (almost completely withered)). The “K: Lolium multiflorum Lam., herbicidal effect grade” value (Lolium multiflorum Lam. [3]) was 5 (Herbicidal ratio of 90% or more (almost completely withered)), the “G: Setaria viridis, herbicidal effect grade” value (Setaria viridis [4]) was 5 (Herbicidal ratio of 90% or more (almost completely withered)) and the “e: wheat, effect on crop grade” value (wheat; [12]) was 3 (Herbicidal ratio of 40% or higher and lower than 70%). For the same molecule, the “N: Amaranthus retroflexus, herbicidal effect grade” value (Amaranthus retroflexus) was 0 (Herbicidal ratio of 5% or lower (almost no effect)), the “J: Alopecurus myosuroides, herbicidal effect grade” value (Alopecurus myosuroides [5]; [12]) was 4 (Herbicidal ratio of 70% or higher and lower than 90%) and the “J: Alopecurus myosuroides, herbicidal effect grade” value (Alopecurus myosuroides [6]) was 5 (Herbicidal ratio of 90% or more (almost completely withered)). For the same molecule, the “A (Echinochloa oryzacola Vasing.) herbicidal effect grade” value [7] was 4 (Herbicidal ratio of 70% or higher and lower than 90%), the “d: soybean, effect on crop grade” value (soybean [8]; [12]) was 0 (Herbicidal ratio of 5% or lower (almost no effect)) and the “L: Apera spica-venti, herbicidal effect grade” value (Apera spica-venti; [12]) was 5 (Herbicidal ratio of 90% or more (almost completely withered)). The “d: soybean, effect on crop grade” value (soybean [9]) was 1 (Herbicidal ratio of 5% or higher and lower than 20%), the “K: Lolium multiflorum Lam., herbicidal effect grade” value (Lolium multiflorum Lam. [10]; [12]) was 5 (Herbicidal ratio of 90% or more (almost completely withered)) and the “I: Avena fatua, herbicidal effect grade” value (Avena fatua) was 5 (Herbicidal ratio of 90% or more (almost completely withered)). The “R: Veronica persica, herbicidal effect grade” value (Veronica persica [11]) was 0 (Herbicidal ratio of 5% or lower (almost no effect)).
With CC(CC1CC(O)=C(c2c(C)cc(-c3ccc(Cl)cc3)cc2C)C1=O)=NOCC(F)(F)F (stereo not drawn) [9-024] the “E herbicidal effect grade” value (Cyperus difformis) was 5 (Herbicidal ratio of 90% or more (almost completely withered)), the “Herbicidal effect grade, Q: Galium spurium” value (Galium spurium; [12]) was 0 (Herbicidal ratio of 5% or lower (almost no effect)) and the “Effect on crop grade, c: corn” value (corn; [12]) was 0 (Herbicidal ratio of 5% or lower (almost no effect)). The “Herbicidal effect grade, G: Setaria viridis” value (Setaria viridis [1]; [12]) was 5 (Herbicidal ratio of 90% or more (almost completely withered)), the “Herbicidal effect grade, R: Veronica persica” value (Veronica persica [2]; [12]) was 4 (Herbicidal ratio of 70% or higher and lower than 90%) and the “Effect on crop grade, b: directly sowed rice plant” value (rice; [12]) was 5 (Herbicidal ratio of 90% or more (almost completely withered)). The “K: Lolium multiflorum Lam., herbicidal effect grade” value (Lolium multiflorum Lam. [3]) was 5 (Herbicidal ratio of 90% or more (almost completely withered)), the “G: Setaria viridis, herbicidal effect grade” value (Setaria viridis [4]) was 5 (Herbicidal ratio of 90% or more (almost completely withered)) and the “Effect on crop grade, e: wheat” value (wheat; [12]) was 2 (Herbicidal ratio of 20% or higher and lower than 40%). The “N: Amaranthus retroflexus, herbicidal effect grade” value (Amaranthus retroflexus) was 1 (Herbicidal ratio of 5% or higher and lower than 20%), the “Herbicidal effect grade, J: Alopecurus myosuroides” value (Alopecurus myosuroides [5]; [12]) was 5 (Herbicidal ratio of 90% or more (almost completely withered)) and the “J: Alopecurus myosuroides, herbicidal effect grade” value (Alopecurus myosuroides [6]) was 5 (Herbicidal ratio of 90% or more (almost completely withered)). The “A (Echinochloa oryzacola Vasing.) herbicidal effect grade” value [7] was 5 (Herbicidal ratio of 90% or more (almost completely withered)), the “Effect on crop grade, d: soybean” value (soybean [8]; [12]) was 0 (Herbicidal ratio of 5% or lower (almost no effect)) and the “Herbicidal effect grade, L: Apera spica-venti” value (Apera spica-venti; [12]) was 5 (Herbicidal ratio of 90% or more (almost completely withered)). The “d: soybean, effect on crop grade” value (soybean [9]) was 0 (Herbicidal ratio of 5% or lower (almost no effect)), the “Herbicidal effect grade, K: Lolium multiflorum Lam.” value (Lolium multiflorum Lam. [10]; [12]) was 5 (Herbicidal ratio of 90% or more (almost completely withered)) and the “I: Avena fatua, herbicidal effect grade” value (Avena fatua) was 5 (Herbicidal ratio of 90% or more (almost completely withered)). For the same molecule, the “R: Veronica persica, herbicidal effect grade” value (Veronica persica [11]) was 4 (Herbicidal ratio of 70% or higher and lower than 90%).
